For series [1] the following is noted: in vitro and in vivo, humans; cited from earlier work.
The conditions of series [2]: humans; cited from earlier work.
For the next series, the system named is human Corpus Cavernosum. The series is described as follows: Relaxation of the human Corpus Cavernosum in vitro. The conditions noted are these: FIG. 1a. An excerpt: A. Relaxation of the Human Corpus Cavernosum in vitro by Means of S-nitroso-N-acetylcysteine ethyl ester, S-nitroso-N-(O-acetylsalicyl)cysteine ethyl ester and Their Metabolites
a. Relaxation of the human Corpus Cavernosum in vitro by S-nitroso-N-acetylcysteine-ethylester (SNACET), S-nitroso-N-(O-acetylsalicyl)cysteine ethyl ester (ASS-SNCET) and their metabolites SNCET and SNAC.

A further series has as its system human arteria mammaria. Put plainly: Relaxation of the human arteria mammaria in vitro. The conditions noted are these: FIG. 1b. The source says:
B. Relaxation of the Human Arteria Mammaria in vitro by S-nitroso-N-acetylcysteine ethyl ester and S-nitro-N-acetylcysteine ethyl ester
b. Relaxation of the human arteria mammaria in vitro by S-nitroso-N-acetylxysteine ethyl ester (SNACET) and S-nitro-N-acetylcysteine ethyl ester (SNO2ACET).

Series [3] is described as follows: Penetration by human Tunica albuginea in vitro in a Franz' cell. Type of series: in vitro ADME. The following applies: SNACET in dimethyl sulphoxide, FIG. 2. The procedure: Penetration of S-nitroso-N-acetylsysteine ethyl ester (SNACET) by Human Tunica albuginea in vitro
Part of Tunica albuginea which has just been prepared is fixed in a Franz' cell. The active surface is 1.77 cm^2. The acceptor phase (10 ml) consists of Hank's buffer (pH 7.4), human albumin (30 g/l), penicillin G (100 units) and streptomycin (10 μg) and is stirred with a magnetic stirrer at a constant rotation speed. The penetration is started by application of solutions of SNACET in dimethyl sulphoxide at various concentrations (0.25 ml) on the part of the skin. At various points in time, samples are taken from the acceptor phase and the concentration of the sum from SNACET and its metabolites is determined. In the acceptor phase, unmodified SNACET and other metabolites including nitrite are detected. […] The penetration rate and the amount of the penetrated SNACET and their metabolites in the acceptor phase depend on the amount of SNACET applied onto the Tunica albuginea. The lag time is approximately 20 min. In the linear region, the penetration rates are 1.0, 2.5 or 5.0 μmol SNACET/hour.
Penetration of S-nitroso-N-acetylcysteine ethyl ester (SNACET) by human Tunica albuginea in vitro in a Franz' cell. Three different amounts dissolved in dimethyl sulphoxide (250 μl each) were applied (see Legend).

A further series has as its system Sprague Dawley rat. The series is described as follows: Hypotensive effect in vivo in the rat (i.v. infusion, average artery blood pressure). The following applies: anaesthetised male Sprague Dawley rat, FIG. 3. The source says: Hypotensive Effect of SNACET in vivo in the Rat
S-nitroso-N-acetylcysteine-ethylester (SNACET) is applied i.v. to a male, anaesthetised Sprague Dawley rat which has a weight of 400 g. Before and after the infusion, the average artery blood pressure is taken continuously.
Hypotensive effect of SNACET in vivo in the rat. SNACET was applied i.v. with the infusion rates stated.

Another series has as its system human blood platelets. Put plainly: Inhibition of collagen-induced aggregation of washed human blood platelets in vitro. The format is cell-based. The conditions noted are these: Platelet, collagen-induced (2 μg/ml). The procedure: Inhibition of the Aggregation of Human Blood Platelets in vitro by Means of S-nitroso-N-acetylcysteine ethyl ester (SNACET) and S-nitroso-N-(O-acetylsalicyl)cysteine ethyl ester (ASS-SNCET)
(§1) Collagen-induced (2 μg/ml) aggregation and thromboxane synthesis in human blood platelets which have been washed are inhibited by SNACET in a concentration-dependent manner (FIG. 4a). The IC50s for the inhibition of the platelet aggregation and the thromboxane synthesis by SNACET are determined at 1 and 0.5 μM. Collagen-induced (2 μg/ml) aggregation of human blood platelets that have been washed is inhibited by ASS-SNCET in a concentration-dependent manner (FIG. 4b). The IC50 for the inhibition of the platelet aggregation by ASS-SNCET is determined at 2 μM (FIG. 4b).
(§2) a. Inhibition of the collagen-induced (2 μg/ml) aggregation of human blood platelets that have been washed and the thromboxane synthesis in the platelets in vitro by S-nitroso-N-acetylcysteine ethyl ester (SNACET).
b. Inhibition of the collagen-induced (2 μg/ml) aggregation of human blood platelets in vitro that have been washed by S-nitroso-N-(O-acetylsalicyl)cysteine ethyl ester (ASS-SNCET). The values are average values from analyses with platelets of four healthy subjects.

Series [4] deals with thromboxane synthesis in human blood platelets. The series is described as follows: Inhibition of collagen-induced thromboxane synthesis in washed human blood platelets in vitro. The conditions noted are these: Platelet, collagen-induced (2 μg/ml). The format is cell-based. How it is done: as §1, §2
The nature of series [5]: In vivo metabolism of orally applied 15N-marked SNACET in the rat (urine, GC-MS). The conditions noted are these: oral 17.5 mg/kg. The procedure: In vivo Metabolism of Orally Applied ^15N-marked S-nitroso-N-acetylcysteine ethyl ester (^15N-SNACET) in the Rat
A male Sprague Dawley rat weighing 480 g is orally given 17.5 mg of ^15N-marked S-nitroso-N-acetylcysteine ethyl ester (^15N-SNACET) per kg body weight, dissolved in 1 ml of a 10% (w/v) glucose solution in drinking water. Before and up to 24 hours after application, urine is collected and the ^15N-concentration of nitrate, nitrite and S-nitroso metabolites of ^15N-SNACET is determined by means of GC-MS.
Metabolism of orally applied ^15N-marked S-nitroso-N-acetylcysteine-ethylester (17.5 mg/kg body weight) in a rat. ^15N-concentration of nitrate, nitrite and for the sum of ^15N-marked S-nitroso-N-acetylcysteine ethyl ester and its metabolites collected in the urine before and up to 24 hours after the application.

For series [6] the following is noted: in vivo in an animal; cited from earlier work.

`N[C@@H](CCC(=O)N[C@@H](CSN=O)C(=O)NCC(=O)O)C(=O)O` [S-nitroso glutathion, S-nitroso-L-glutathion]: the “Anti-hypertensive and anti-aggregatory effect” value in series [1] is “have an anti-hypertensive and an anti-aggregatory effect in humans”. The Rate of embolism result in series [2] is recorded as “reduces the rate of embolism in humans”.

As for `CC(=O)N[C@@H](CSN=O)C(=O)O` [SNAC, S-nitroso-N-acetylcysteine], the “Relaxation of human Corpus Cavernosum” value in the series on human Corpus Cavernosum was “relax human Corpus Cavernosum in vitro in a concentration-dependent manner”.

What is called IC50 is the midpoint of a concentration-inhibition curve. A low value points to inhibition by little substance. For `CCOC(=O)[C@H](CSN=O)NC(C)=O` [SNACET, S-nitroso-N-acetylcysteine ethyl ester], the “Relaxation of human Corpus Cavernosum” value with human Corpus Cavernosum was “relax human Corpus Cavernosum in vitro in a concentration-dependent manner”. Also, in the series with human arteria mammaria, the “Relaxation of human arteria mammaria” value is “relax human arteria mammaria in vitro in a concentration-dependent manner”. Also, the “Penetration of the Tunica albuginea” value in series [3] is recorded as “penetrates the Tunica albuginea”. For the same compound, the “Average artery blood pressure” value in the series with Sprague Dawley rat is given as “the average artery blood pressure decreases in dependence on the infusion rate”. Further, the results for the concentration for half-maximal inhibition (IC50) (with human blood platelets; in series [4]) were 1000 nM and 500 nM, respectively.

With `CCOC(=O)[C@@H](N)CSN=O` [SNCET, S-nitroso-cysteine ethyl ester], in the series with human Corpus Cavernosum, the “Relaxation of human Corpus Cavernosum” value is reported as “relax human Corpus Cavernosum in vitro in a concentration-dependent manner”.

On to `CCOC(=O)[C@H](CS[N+](=O)[O-])NC(C)=O` [SNO2-ACET, S-nitro-N-acetylcysteine ethyl ester], for which, in the series with human arteria mammaria, the “Relaxation of human arteria mammaria” value is “relax human arteria mammaria in vitro in a concentration-dependent manner”.

On to `CCOC(=O)[C@H](CS[15N]=O)NC(C)=O` [^15N-SNACET, ^15N-marked S-nitroso-N-acetylcysteine ethyl ester], for which the “Time of the highest 15N-concentration in urine” value in series [5] is recorded as “within the first two hours”. Also, in series [5] (24 hours), the “15N-concentration in the urine 24 hours after the administration” value is “insignificantly higher than the natural occurrence of ^15N”. Moreover, in series [5] (urine up to 24 hours), the “Main metabolite in urine” value is listed as “^15N-nitrate”; the “Secretion of unchanged compound and S-nitroso metabolites into the urine” value is “neither ^15N-SNACET no other S-[^15N]nitroso-containing metabolites are secreted into the urine”.

“S-nitroso-N-acetyl penicillamines [SNAP]”: the Development of tolerance entry in series [6] is on record as “show no development of tolerance”.

Source of the values: patent US6613937B2, “S-nitroso- and S-nitro-N-acyl-L-cysteine ester derivatives as pharmalogically active agents and pharmaceutical compositions containing said compounds” (priority 1999, dated 2003).
